In brackets after ≈: the same amount, converted by molar mass. Activity calls are given as the source filed them. No cut-off for these calls is given here.
Assays:
MCF7 [1] = experiment: Induction of apoptosis in human MCF7 cells assessed as downregulation of c-Myc gene expression at 1 uM measured after 24 hrs whole transcriptome analysis; assay type: functional, cell-based
Histone deacetylase 2 = Histone deacetylase 2 (Homo sapiens, UniProt Q92769); assay type: cell-based, Sf9
MCF7 [2] = experiment: Downregulation of SIRT4 gene expression in human MCF7 cells at 3 uM incubated for 24 hrs by whole transcriptome analysis; assay type: functional, cell-based
[3] = Downregulation of HDAC3 gene expression in human MCF7 cells at 3 uM incubated for 24 hrs by whole transcriptome analysis relative to control; assay type: functional
[4] = Metabolic stability of the compound in CD-1 mouse liver microsomes assessed as parent compound remaining at 1 uM measured after 60 mins in absence of NADPH by LC-MS/MS analysis; assay type: ADME, Microsome; conditions: read-out: Stabilty
Histone deacetylase 5 = Histone deacetylase 5 (Homo sapiens, UniProt Q9UQL6); experiment: Inhibition of N-terminal GST-tagged human recombinant full length HDAC5 expressed in baculovirus-infected Sf9 cells assessed as reduction in 7-amino-4-methylcoumarin release measured every 5 mins by fluorescence based analysis
Sequence of Histone deacetylase 5 (Q9UQL6 whole entry, the tested form may be a part): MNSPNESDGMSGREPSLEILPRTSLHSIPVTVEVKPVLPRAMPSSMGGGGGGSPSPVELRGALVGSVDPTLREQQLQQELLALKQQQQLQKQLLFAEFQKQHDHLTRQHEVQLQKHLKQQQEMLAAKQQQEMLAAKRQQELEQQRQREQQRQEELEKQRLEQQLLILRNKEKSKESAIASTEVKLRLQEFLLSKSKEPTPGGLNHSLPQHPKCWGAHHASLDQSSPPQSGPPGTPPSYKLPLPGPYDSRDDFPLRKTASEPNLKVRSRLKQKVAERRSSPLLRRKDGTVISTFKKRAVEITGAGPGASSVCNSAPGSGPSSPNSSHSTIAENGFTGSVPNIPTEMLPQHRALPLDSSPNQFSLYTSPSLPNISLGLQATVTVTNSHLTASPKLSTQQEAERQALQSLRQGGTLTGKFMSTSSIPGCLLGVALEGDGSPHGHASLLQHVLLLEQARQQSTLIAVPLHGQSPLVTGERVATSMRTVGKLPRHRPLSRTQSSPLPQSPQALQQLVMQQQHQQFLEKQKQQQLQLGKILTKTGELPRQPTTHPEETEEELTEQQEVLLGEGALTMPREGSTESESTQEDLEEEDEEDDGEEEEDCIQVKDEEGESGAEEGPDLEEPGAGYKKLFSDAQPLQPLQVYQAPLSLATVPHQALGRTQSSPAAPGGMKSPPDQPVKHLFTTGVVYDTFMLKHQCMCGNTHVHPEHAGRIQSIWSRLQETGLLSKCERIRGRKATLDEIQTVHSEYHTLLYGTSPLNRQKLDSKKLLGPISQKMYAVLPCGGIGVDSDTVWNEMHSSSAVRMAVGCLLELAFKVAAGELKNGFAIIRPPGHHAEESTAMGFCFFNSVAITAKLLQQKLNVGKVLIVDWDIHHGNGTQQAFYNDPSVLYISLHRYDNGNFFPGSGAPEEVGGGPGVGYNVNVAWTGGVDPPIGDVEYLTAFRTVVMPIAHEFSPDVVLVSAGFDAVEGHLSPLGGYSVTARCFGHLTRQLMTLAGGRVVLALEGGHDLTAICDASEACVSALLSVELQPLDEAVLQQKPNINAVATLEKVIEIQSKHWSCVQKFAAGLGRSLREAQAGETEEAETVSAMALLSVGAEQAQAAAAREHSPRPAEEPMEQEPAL

Homo sapiens [5] = species on record: Homo sapiens; experiment: (§1) Selectivity ratio of IC50 for inhibition of C-terminal His-tagged human HDAC9 (604 to 1066 residues) expressed in baculovirus-infected Sf9 cells to IC50 for inhibition of C-terminal 6XHis-tagged human recombinant full length HDAC2 (1 to 488 residues) expressed in baculovirus-infected Sf9 cells
Homo sapiens [6] = species on record: Homo sapiens; experiment: Selectivity ratio of IC50 for inhibition of N-terminal GST-tagged human recombinant full length HDAC5 expressed in baculovirus-infected Sf9 cells to IC50 for inhibition of C-terminal FLAG/His-tagged human recombinant HDAC1 (1 to 482 residues) expressed in baculovirus-infected Sf9 cells
Homo sapiens [7] = species on record: Homo sapiens; experiment: as §1, with “recombinant full length HDAC3 (1” for “HDAC9 (604”, “428 residues)/N-terminal GST-tagged human recombinant NCOR2 (395 to 489” for “1066”
MCF7 [8] = experiment: Induction of cell cycle arrest in human MCF7 cells assessed downregulation of CDK2 gene expression at 3 uM incubated for 24 hrs by whole transcriptome analysis; assay type: functional, cell-based
MCF7 [9] = experiment: Induction of apoptosis in human MCF7 cells assessed as reduction in Bcl2 gene expression at 3 uM incubated for 24 hrs by whole transcriptome analysis; assay type: functional, cell-based
[10] = Metabolic stability of the compound in human liver microsomes assessed as parent compound remaining at 1 uM measured after 60 mins in absence of NADPH by LC-MS/MS analysis; assay type: ADME, Microsome; conditions: read-out: Stabilty
MCF7 [11] = experiment: Downregulation of SIRT2 gene expression in human MCF7 cells at 3 uM incubated for 24 hrs by whole transcriptome analysis; assay type: functional, cell-based
Homo sapiens [12] = species on record: Homo sapiens; experiment: Selectivity ratio of IC50 for inhibition of C-terminal His-tagged human HDAC9 (604 to 1066 residues) expressed in baculovirus-infected Sf9 cells to IC50 for inhibition of C-terminal FLAG/His-tagged human recombinant HDAC1 (1 to 482 residues) expressed in baculovirus-infected Sf9 cells
Histone deacetylase 1 = Histone deacetylase 1 (Homo sapiens, UniProt Q13547); experiment: (§2) Inhibition of C-terminal FLAG/His-tagged human recombinant HDAC1 (1 to 482 residues) expressed in baculovirus-infected Sf9 cells assessed as reduction in 7-amino-4-methylcoumarin release using fluorogenic HDAC substrate 3 measured every 5 mins by fluorescence based analysis
Sequence of Histone deacetylase 1 (Q13547 whole entry, the tested form may be a part): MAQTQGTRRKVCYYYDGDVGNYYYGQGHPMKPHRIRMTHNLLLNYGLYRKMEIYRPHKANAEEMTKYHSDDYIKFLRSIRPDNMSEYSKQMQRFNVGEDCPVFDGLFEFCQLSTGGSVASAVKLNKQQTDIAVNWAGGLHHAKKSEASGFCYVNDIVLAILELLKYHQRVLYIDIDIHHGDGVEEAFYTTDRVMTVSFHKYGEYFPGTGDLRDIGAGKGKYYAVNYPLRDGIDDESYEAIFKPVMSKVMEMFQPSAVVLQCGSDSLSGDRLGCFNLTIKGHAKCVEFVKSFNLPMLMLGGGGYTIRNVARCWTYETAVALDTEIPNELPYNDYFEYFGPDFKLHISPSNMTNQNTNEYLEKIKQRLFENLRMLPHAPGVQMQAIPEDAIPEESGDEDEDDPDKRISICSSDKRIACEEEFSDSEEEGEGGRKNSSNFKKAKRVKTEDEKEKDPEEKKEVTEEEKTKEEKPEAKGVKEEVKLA

MCF7 [13] = experiment: Induction of cell cycle arrest in human MCF7 cells assessed downregulation of RB1 gene expression at 3 uM incubated for 24 hrs by whole transcriptome analysis; assay type: functional, cell-based
Homo sapiens [14] = species on record: Homo sapiens; experiment: Selectivity ratio of IC50 for inhibition of N-terminal GST-tagged human HDAC7 (518 to end residues) expressed in baculovirus-infected Sf9 cells to IC50 for inhibition of C-terminal FLAG/His-tagged human recombinant HDAC1 (1 to 482 residues) expressed in baculovirus-infected Sf9 cells
Histone deacetylase 9 = Histone deacetylase 9 (Homo sapiens, UniProt Q9UKV0); experiment: Inhibition of C-terminal His-tagged human HDAC9 (604 to 1066 residues) expressed in baculovirus-infected Sf9 cells assessed as reduction in 7-amino-4-methylcoumarin release measured every 5 mins by fluorescence based analysis
MCF7 [15] = experiment: Induction of cell cycle arrest in human MCF7 cells assessed downregulation of CDK4 gene expression at 3 uM incubated for 24 hrs by whole transcriptome analysis; assay type: functional, cell-based
[16] = Half life in human liver microsomes at 1 uM measured after 60 mins in presence of NADPH by LC-MS/MS analysis; assay type: ADME, Microsome
A549 = experiment: Antiproliferative activity against human A549 cells assessed as reduction in cell viability incubated for 48 hrs by SRB assay; assay type: functional, cell-based; conditions: A549, 48 h
MCF7 [17] = experiment: Induction of apoptosis in human MCF7 cells assessed as downregulation of c-Myc protein expression at 1 to 3 uM measured after 48 hrs western blot analysis; assay type: functional, cell-based; conditions: dose 1-3 µM
MCF7 [18] = experiment: Downregulation of NFkB2 gene expression in human MCF7 cells at 3 uM incubated for 24 hrs by whole transcriptome analysis; assay type: functional, cell-based
[19] = Kinetic aqueous solubility of the compound in 2% DMSO/phosphate buffered saline at 200 uM incubated for 90 mins by UV absorbance based analysis; assay type: physicochemical; conditions: read-out: Kinetic_solubility
MCF7 [20] = experiment: Antiproliferative activity against human MCF7 cells assessed as reduction in cell viability incubated for 48 hrs by SRB assay; assay type: functional, cell-based; conditions: MCF7, 48 h
Cytochrome P450 3A4 = Cytochrome P450 3A4 (Homo sapiens, UniProt P08684); experiment: Inhibition of human CYP3A4 expressed in insect supersomes assessed as reduction in […] formation using midazolam as substrate measured after 30 mins in presence of NADPH by LC-MS/MS analysis; assay type: ADME
MCF7 [21] = experiment: Induction of apoptosis in human MCF7 cells assessed as increase in caspase 3/7 activity at 1 to 3 uM measured after 48 hrs by ELISA; assay type: functional, cell-based; conditions: dose 1-3 µM
Cytochrome P450 2D6 = Cytochrome P450 2D6 (Homo sapiens, UniProt P10635); experiment: Inhibition of human CYP2D6 expressed in insect supersomes assessed as reduction in AHMC formation using AMMC as substrate measured after 40 mins in presence of NADPH by fluorescence based analysis; assay type: ADME
Cytochrome P450 2C9 = Cytochrome P450 2C9 (Homo sapiens, UniProt P11712); experiment: Inhibition of human CYP2C9-1 expressed in insect supersomes assessed as reduction in HFC formation using MFC as substrate measured after 30 mins in presence of NADPH by fluorescence based analysis; assay type: ADME
[22] = target: Histone deacetylase 3/Nuclear receptor corepressor 2 (HDAC3/NCoR2) (Homo sapiens, UniProt O15379); experiment: as §2, with “His-tagged” for “FLAG/His-tagged”, “full length HDAC3” for “HDAC1”, “428 residues)/N-terminal GST-tagged human recombinant NCOR2 (395 to 489” for “482”
Sequence of Histone deacetylase 3/Nuclear receptor corepressor 2 (HDAC3/NCoR2) (O15379 whole entry): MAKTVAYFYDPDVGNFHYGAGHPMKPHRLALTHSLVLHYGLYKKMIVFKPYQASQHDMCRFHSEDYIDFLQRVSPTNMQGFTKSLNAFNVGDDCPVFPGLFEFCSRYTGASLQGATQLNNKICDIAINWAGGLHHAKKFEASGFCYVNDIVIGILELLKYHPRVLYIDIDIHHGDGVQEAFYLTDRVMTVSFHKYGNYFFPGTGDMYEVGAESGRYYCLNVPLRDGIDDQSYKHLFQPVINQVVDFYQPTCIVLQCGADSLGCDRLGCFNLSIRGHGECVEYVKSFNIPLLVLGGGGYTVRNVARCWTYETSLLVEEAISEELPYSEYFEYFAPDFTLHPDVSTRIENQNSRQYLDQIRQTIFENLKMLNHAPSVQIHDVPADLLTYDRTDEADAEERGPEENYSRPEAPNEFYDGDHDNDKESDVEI
Sequence of Histone deacetylase 3/Nuclear receptor corepressor 2 (HDAC3/NCoR2) (Q9Y618 whole entry, further chain): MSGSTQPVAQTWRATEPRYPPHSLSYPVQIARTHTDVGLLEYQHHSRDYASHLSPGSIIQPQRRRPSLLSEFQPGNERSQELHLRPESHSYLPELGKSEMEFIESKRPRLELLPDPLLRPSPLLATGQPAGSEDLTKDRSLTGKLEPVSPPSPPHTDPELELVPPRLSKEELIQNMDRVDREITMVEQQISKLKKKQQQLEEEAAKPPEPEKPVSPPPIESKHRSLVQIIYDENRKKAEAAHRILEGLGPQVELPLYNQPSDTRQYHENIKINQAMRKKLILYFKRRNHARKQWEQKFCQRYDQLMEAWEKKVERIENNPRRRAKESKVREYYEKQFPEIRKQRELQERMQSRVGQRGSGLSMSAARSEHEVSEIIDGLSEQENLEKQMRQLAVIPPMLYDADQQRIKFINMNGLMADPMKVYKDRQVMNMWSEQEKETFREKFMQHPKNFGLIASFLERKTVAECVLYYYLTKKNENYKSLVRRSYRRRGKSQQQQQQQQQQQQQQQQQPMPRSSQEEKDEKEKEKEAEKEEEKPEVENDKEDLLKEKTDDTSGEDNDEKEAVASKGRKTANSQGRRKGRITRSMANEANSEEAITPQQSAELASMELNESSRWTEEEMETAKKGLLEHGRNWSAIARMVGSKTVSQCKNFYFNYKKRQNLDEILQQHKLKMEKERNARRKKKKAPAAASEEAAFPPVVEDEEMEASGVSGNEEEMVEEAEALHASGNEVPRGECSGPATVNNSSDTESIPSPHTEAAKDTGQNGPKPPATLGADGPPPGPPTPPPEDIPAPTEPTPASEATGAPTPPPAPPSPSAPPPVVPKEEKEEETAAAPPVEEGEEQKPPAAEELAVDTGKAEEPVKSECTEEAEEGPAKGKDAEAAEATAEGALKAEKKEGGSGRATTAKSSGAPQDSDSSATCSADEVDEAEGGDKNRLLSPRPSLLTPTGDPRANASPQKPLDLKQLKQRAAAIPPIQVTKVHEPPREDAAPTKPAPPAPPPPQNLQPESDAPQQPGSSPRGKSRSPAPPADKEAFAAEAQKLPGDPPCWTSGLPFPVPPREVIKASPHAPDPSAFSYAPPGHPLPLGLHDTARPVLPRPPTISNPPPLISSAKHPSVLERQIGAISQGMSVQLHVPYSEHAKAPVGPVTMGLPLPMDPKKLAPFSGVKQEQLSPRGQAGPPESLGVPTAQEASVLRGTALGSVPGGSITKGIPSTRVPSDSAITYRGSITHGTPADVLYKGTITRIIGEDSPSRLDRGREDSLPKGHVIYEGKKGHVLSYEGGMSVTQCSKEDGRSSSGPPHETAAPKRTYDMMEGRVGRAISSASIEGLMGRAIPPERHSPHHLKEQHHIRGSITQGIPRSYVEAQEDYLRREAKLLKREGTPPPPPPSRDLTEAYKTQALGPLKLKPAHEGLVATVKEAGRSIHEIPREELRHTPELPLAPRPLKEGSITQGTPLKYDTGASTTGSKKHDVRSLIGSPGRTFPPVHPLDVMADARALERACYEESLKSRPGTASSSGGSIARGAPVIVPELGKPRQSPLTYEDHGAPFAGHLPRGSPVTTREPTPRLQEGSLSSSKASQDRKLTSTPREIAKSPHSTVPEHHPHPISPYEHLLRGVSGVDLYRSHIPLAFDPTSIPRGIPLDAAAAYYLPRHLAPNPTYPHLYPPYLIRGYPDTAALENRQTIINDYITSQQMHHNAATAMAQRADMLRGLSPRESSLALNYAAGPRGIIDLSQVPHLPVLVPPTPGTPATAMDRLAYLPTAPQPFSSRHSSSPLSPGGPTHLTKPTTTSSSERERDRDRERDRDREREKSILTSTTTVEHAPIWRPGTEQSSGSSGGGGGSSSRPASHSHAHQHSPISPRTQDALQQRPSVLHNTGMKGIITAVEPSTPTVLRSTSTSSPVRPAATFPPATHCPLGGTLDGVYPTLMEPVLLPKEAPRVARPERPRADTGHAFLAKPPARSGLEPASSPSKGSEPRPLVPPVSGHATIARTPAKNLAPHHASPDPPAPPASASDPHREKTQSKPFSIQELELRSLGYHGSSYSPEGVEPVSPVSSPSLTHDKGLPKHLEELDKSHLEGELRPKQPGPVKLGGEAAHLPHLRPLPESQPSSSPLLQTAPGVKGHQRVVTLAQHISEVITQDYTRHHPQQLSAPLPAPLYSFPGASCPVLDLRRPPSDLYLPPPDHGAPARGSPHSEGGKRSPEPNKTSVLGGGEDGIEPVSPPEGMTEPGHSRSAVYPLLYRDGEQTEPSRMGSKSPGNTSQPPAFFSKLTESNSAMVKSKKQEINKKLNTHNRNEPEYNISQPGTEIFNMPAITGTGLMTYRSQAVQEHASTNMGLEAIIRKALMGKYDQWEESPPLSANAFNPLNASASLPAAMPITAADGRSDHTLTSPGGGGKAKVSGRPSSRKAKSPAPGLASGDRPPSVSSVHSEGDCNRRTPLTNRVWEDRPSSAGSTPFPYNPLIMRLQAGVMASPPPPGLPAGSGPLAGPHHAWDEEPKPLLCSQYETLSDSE

[23] = Downregulation of HDAC1 gene expression in human MCF7 cells at 3 uM incubated for 24 hrs by whole transcriptome analysis relative to control; assay type: functional

Sequence of Histone deacetylase 2 (Q92769 whole entry): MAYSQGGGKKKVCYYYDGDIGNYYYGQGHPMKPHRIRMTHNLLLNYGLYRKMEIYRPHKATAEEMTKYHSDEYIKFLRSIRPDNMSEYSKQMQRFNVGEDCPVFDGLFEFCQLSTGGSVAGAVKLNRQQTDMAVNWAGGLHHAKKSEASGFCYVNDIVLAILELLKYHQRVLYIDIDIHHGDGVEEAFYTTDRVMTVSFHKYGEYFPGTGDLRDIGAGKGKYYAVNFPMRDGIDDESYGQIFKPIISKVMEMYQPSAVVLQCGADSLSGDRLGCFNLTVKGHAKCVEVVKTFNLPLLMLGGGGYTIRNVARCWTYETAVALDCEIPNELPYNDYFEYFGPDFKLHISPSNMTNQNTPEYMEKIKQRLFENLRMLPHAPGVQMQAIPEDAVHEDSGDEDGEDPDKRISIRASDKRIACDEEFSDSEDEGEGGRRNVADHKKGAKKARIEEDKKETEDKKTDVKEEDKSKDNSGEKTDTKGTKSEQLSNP

IC50 (Histone deacetylase 2): 400 nM
remaining at 1 h, 1 µM [4]: 94%
IC50 (Histone deacetylase 5): > 10000 nM
remaining at 1 h, 1 µM [10]: 99%
IC50 (Histone deacetylase 1): 550 nM
IC50 (Histone deacetylase 9): > 10000 nM
half-life at 1 µM [16]: 7.1 min
IC50 (A549): 200 nM
solubility kinetic at 1.5 h, 200 µM [19]: 36.1 µM (≈ 13.3 µg/mL)
IC50 (MCF7 [20]): 2000 nM
IC50 (Cytochrome P450 3A4): 233 nM
IC50 (Cytochrome P450 2D6): > 10000 nM
IC50 (Cytochrome P450 2C9): > 10000 nM
IC50 [22]: > 10000 nM
SMILES: N=C(NO)c1ccc2nc(-c3cccc(-c4cn5ccccc5n4)c3)[nH]c2c1
Activity (MCF7 [1]): Active
inhibition (MCF7 [2]): Active
fold change (FC) [3]: 2.2
Ratio IC50 (Homo sapiens [5]): > 44
Ratio IC50 (Homo sapiens [6]): > 44
Ratio IC50 (Homo sapiens [7]): > 44
Activity (MCF7 [8]): Active
Activity (MCF7 [9]): Active
inhibition (MCF7 [11]): Active
Ratio IC50 (Homo sapiens [12]): > 44
Activity (MCF7 [13]): Active
Ratio IC50 (Homo sapiens [14]): > 44
Activity (MCF7 [15]): Active
Activity (MCF7 [17]): Active
inhibition (MCF7 [18]): Active
Activity (MCF7 [21]): Active
fold change (FC) [23]: 3.2

— ChEMBL document CHEMBL4811298, “Discovery of novel class of histone deacetylase inhibitors as potential anticancer agents” (Bioorg Med Chem, 2021)
